Read-outs that look alike come from different tables or passages of the source. Where a SMILES comes first, the peptide text is derived from it. Bridges are numbered along the chain shown (N, C = ends). [ ]: non-standard residue; d: D form. The star is where a group is joined. Me3N+(CH2)2O(CH2)2O(CH2)2CO = C[N+](C)(C)CCOCCOCCC(=O)*; Trp(7-Me) = Cc1cccc2c(C[C@H](N)C(=O)O)c[nH]c12; 2Nal = N[C@@H](Cc1ccc2ccccc2c1)C(=O)O; AEF = NCCOc1ccc(C[C@H](N)C(=O)O)cc1; 3Pal = N[C@@H](Cc1cccnc1)C(=O)O; Aad = N[C@@H](CCCC(=O)O)C(=O)O; Lys(Me) = CNCCCC[C@H](N)C(=O)O; Pen = CC(C)(S)[C@H](N)C(=O)O; Thp = NC1(C(=O)O)CCOCC1; X1 = C[N+](C)(C)CCCCC*; Sar = CNCC(=O)O
Assays:
[1] = molecular target: T1, peripheral blood mononuclear cells (PBMCs) stimulated with IL-23 (Homo sapiens, UniProt Q5VWK5); assay: PBMC pSTAT3 assay; type: cell-based; conditions: PBMCs from healthy donors; IL-23 5 ng/mL, 30 minutes; phosphorylated STAT3 in lysates
T1 sequence (Q5VWK5 24-629): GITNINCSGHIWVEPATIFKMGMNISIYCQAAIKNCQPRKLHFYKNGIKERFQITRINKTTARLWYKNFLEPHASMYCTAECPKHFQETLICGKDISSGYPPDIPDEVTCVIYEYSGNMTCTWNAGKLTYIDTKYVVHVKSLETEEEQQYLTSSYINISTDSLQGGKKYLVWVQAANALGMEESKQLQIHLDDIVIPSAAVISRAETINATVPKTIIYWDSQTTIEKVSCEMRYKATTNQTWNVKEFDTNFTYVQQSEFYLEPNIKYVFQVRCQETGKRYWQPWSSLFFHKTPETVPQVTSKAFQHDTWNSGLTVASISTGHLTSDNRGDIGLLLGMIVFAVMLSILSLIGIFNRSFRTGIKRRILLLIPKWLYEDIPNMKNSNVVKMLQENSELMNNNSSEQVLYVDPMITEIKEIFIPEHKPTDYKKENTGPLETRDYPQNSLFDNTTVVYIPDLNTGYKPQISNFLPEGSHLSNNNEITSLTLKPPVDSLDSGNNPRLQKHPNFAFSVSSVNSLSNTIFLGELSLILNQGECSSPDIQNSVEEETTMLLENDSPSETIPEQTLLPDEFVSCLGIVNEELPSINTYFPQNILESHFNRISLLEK
Description: Cryopreserved peripheral blood mononuclear cells (PBMCs) from healthy donors were thawed and washed twice in ImmunoCult-XF T cell expansion medium (XF-TCEM) supplemented with CTL anti-aggregate wash. The cells were counted, resuspended at 2×10^5 cells per mL XF-TCEM supplemented with penicillin/streptomycin and 100 ng/mL […] (BioLegend, 579404), and cultured in tissue culture flasks coated with anti-CD3 (eBioscience, 16-0037-85 or BD Pharmingen, 555329) at 37° C. in 5% C02. On day 4 of culture, PBMCs were collected, washed twice in RPMI-1640 supplemented with 0.1% BSA (RPMI-BSA), and incubated in RPMI-BSA in upright tissue culture flasks for 4 hours at 37° C. in 5% C02. Following this ‘starvation,’ a total of 6×10^4 cells in 30 μL RPMI-BSA was transferred into each well of a 384-well plate pre-spotted with peptide or DMSO. The cells were incubated for 30 minutes prior to the addition of IL-23 at a final concentration of 5 ng/mL. The cells were stimulated with cytokine for 30 minutes at 37° C. in 5% C02, transferred onto ice for 10 minutes, and lysed. Cell lysates were stored at −80° C. until phosphorylated STAT3 was measured using the phospho-STAT panel kit (Meso Scale Discovery, K15202D). The results produced with PBMCs are provide in Table 5 below for several from Examples along with data from the IL23R Reporter Assays utilizing HEK293 cells described above. […]

IL-23R = molecular target: T2, IL-23R (Homo sapiens, UniProt Q5VWK5); assay: IL-23R reporter assay (HEK293, STAT-inducible luciferase); type: cell-based; conditions: Table 4; HEK293 cells with IL-23R, IL-12Rβ1 and STAT-inducible luciferase reporter, stimulated with IL-23
T2 construct: host or cells: HEK293
T2 sequence (Q5VWK5 24-629): T1 sequence (Q5VWK5 24-629)
Description: Example 4. IL-23R Reporter Assay
Compounds were serially diluted in 100% (v/v) DMSO) and plated using an Echo acoustic dispenser (Labcyte) into 1536-well non-treated black assay plates (Corning #9146). […] After 5 h at 37° C., 5% CO2, 95% relative humidity, cells were placed at 20° C. and treated with BioGlo reagent (Promega) according to the manufacturer's instructions. Luminescence was measured on a Pherastar FSX (BMG LabTech). […] Where multiple measurements have been made the average is shown with the number of replicates indicated in parenthesis following the IC50 values.

[2] = the molecule shown is the open-chain precursor, 20-membered ring

`CC(=O)N[C@H](CCCCN)C(=O)N[C@@H]1C(=O)N[C@@H](CCC(N)=O)C(=O)N[C@@H]([C@@H](C)O)C(=O)N[C@@H](Cc2c[nH]c3ccccc23)C(=O)N[C@@H](CCC(N)=O)C(=O)N[C@H](C(=O)N[C@@H](Cc2ccc(OCCNC(C)=C3C(=O)CC(C)(C)CC3=O)cc2)C(=O)N[C@@H](Cc2ccc3ccccc3c2)C(=O)NC2(C(=O)N[C@@H](CCC(=O)O)C(=O)N[C@@H](CC(N)=O)C(=O)NCCC(N)=O)CCOCC2)C(C)(C)SSC1(C)C` showed a ring closure, yield after HPLC (from Ac-dLys-Pen-Gln-Thr-Trp-Gln-Pen-AEF(Dde)-2Nal-THP-Glu-Asn-bAla-NH2?, disulfide bond, 20-membered ring, I2/AcOH, H2O/MeCN 1:1, 0.5 mM) of 48%.
Work on “6Ahx(2)-Abu(1)-N-T-W-Q-C(1)-AEF-2Nal-THP-E(2)-N-3Pya-Sar-CONH2” yielded a ring closure, yield after HPLC (amide bond, 29-membered ring, PyBOP/DIEA, DMF, 5.0 mM) of 5%.
“7Ahp(2)-Pen(3)-N-T-7MeW-K(Ac)-Pen(3)-AEF-2Nal-THP-E(2)-N-3Pya-Sar-CONH2” showed a ring closure, yield after HPLC (amide bond, 30-membered ring, PyBOP/DIEA, DMF, 5.0 mM) of 13%.
`CC(=O)N(C)CCCC[C@@H]1NC(=O)[C@H](Cc2c[nH]c3c(C)cccc23)NC(=O)[C@H]([C@@H](C)O)NC(=O)[C@H](CC(=O)N(C)C)NC(=O)[C@H]2NC(=O)[C@H](NC(=O)CCOCCOCC[N+](C)(C)C)CCCCNC(=O)CCC[C@@H](C(=O)N[C@@H](CC(N)=O)C(=O)N[C@@H](Cc3cccnc3)C(=O)N(C)CC(=O)N(C)C)NC(=O)C3(CCOCC3)NC(=O)[C@H](Cc3ccc4ccccc4c3)NC(=O)[C@H](Cc3ccc(OCCCCC[N+](C)(C)C)cc3)NC(=O)[C@@H](NC1=O)C(C)(C)SSC2(C)C` [Compd 319] ({Me3N+(CH2)2O(CH2)2O(CH2)2CO}-[dK][Pen]D(NMe2)T[Trp(7-Me)][Lys(Me)](Ac)[Pen]Y(X1)[2Nal][Thp][Aad]N[3Pal][Sar]-NMe2; lactam 1-11; disulfide 2-7) showed an IC50 [1] of 0.0079 nM.
In the case of `CC(=O)NCCCC[C@@H]1NC(=O)[C@H](Cc2c[nH]c3ccccc23)NC(=O)[C@H]([C@@H](C)O)NC(=O)[C@H]2CCC(=O)NCCOc3ccc(cc3)C[C@@H](C(=O)N[C@@H](Cc3ccc4ccccc4c3)C(=O)NC3(C(=O)N[C@@H](CCCCNC(C)=O)C(=O)N[C@@H](CO)C(=O)N[C@@H](Cc4cccnc4)C(=O)N(C)CC(N)=O)CCOCC3)NC(=O)[C@@H](NC1=O)C(C)(C)SSC(C)(C)[C@H](NC(C)=O)C(=O)N2` [Example 4, Ac-[Pen]-E-T-W-[Lys(Ac)]-[Pen]-[Phe(4-(2-aminoethoxy))]-[2Nal]-[THP]-[Lys(Ac)]-S-[3Pal]-[Sarc]-NH2] (Ac-[Pen][dE]TWK(Ac)[Pen][AEF][2Nal][Thp]K(Ac)S[3Pal][Sar]-NH2; disulfide 1-6; lactam 2-7), the IC50 (IL-23R) is reported as 330 nM.
Compound `CC(=O)NCCCC[C@@H]1NC(=O)[C@H](Cc2c[nH]c3c(C)cccc23)NC(=O)[C@H]([C@@H](C)O)NC(=O)[C@H](CC(N)=O)NC(=O)[C@H]2NC(=O)CCCCCCNC(=O)CC[C@@H](C(=O)N[C@@H](CC(N)=O)C(=O)N(C)[C@H](Cc3ccc(O)cc3)C(N)=O)NC(=O)C3(CCOCC3)NC(=O)[C@H](Cc3ccc4ccccc4c3)NC(=O)[C@H](Cc3ccc(OCCN)cc3)NC(=O)[C@@H](NC1=O)C(C)(C)SSC2(C)C` [Example 25, [7AminoHeptanoicAcid]-[Pen]-N-T-[W(7-Me)]-[Lys(Ac)]-[Pen]-[Phe(4-(2-aminoethoxy))]-[2Nal]-[THP]-E-N-[(D)NMeTyr]-NH2] has an IC50 (IL-23R) of 830 nM.
Work on `CC(=O)NCCCC[C@@H]1NC(=O)[C@H](Cc2c[nH]c3c(C)cccc23)NC(=O)[C@H]([C@@H](C)O)NC(=O)[C@H](CC(N)=O)NC(=O)[C@@H](NC(=O)CCCCCCN)C(C)(C)SSC(C)(C)[C@@H](C(=O)N[C@H]2Cc3ccc(cc3)OCCNC(=O)CC[C@@H](C(=O)N[C@@H](CC(N)=O)C(=O)N[C@@H](Cc3cccnc3)C(=O)N(C)CC(N)=O)NC(=O)C3(CCOCC3)NC(=O)[C@H](Cc3ccc4ccccc4c3)NC2=O)NC1=O` [Example 137, [7AminoHeptanoicAcid]-[Pen]-N-T-[W(7-Me)]-[Lys(Ac)]-[Pen]-[Phe(4-(2-aminoethoxy))]-[2Nal]-[THP]-E-N-[3Pal]-[Sarc]-NH2] yielded an IC50 (IL-23R) of 430 nM.
With `CC(=O)NCCCC[C@@H]1NC(=O)[C@H](Cc2c[nH]c3c(C)cccc23)NC(=O)[C@H]([C@@H](C)O)NC(=O)[C@H](CC(N)=O)NC(=O)[C@@H](NC(=O)CCCCCCN)C(C)(C)SSC(C)(C)[C@@H](C(=O)N[C@H]2Cc3ccc(cc3)OCCNC(=O)CC[C@@H](C(=O)N[C@@H](CC(N)=O)C(=O)NC3(C(N)=O)CCOCC3)NC(=O)C3(CCOCC3)NC(=O)[C@H](Cc3ccc4ccccc4c3)NC2=O)NC1=O` [Example 139, [7AminoHeptanoic Acid]-[Pen]-N-T-[W(7-Me)]-[Lys(Ac)]-[Pen]-[Phe(4-(2-aminoethoxy))]-[2Nal]-[THP]-E-N-[THP]-NH2] the IC50 (IL-23R) was > 16600 nM.
Work on “Ac-O2R-Pen-Gln-Thr-Trp-Gln-Pen-Phe[4-(2-aminoethoxy)]-2Nal-THP-O2R-Asn-bAla-NH2” yielded a ring closure, yield after HPLC (the molecule shown is the open-chain precursor, disulfide bond, 20-membered ring, I2/AcOH, then Boc2O/DIEA, H2O/MeCN, 0.55 mM, 2 steps) of 40%.
“Ac-Pen-Glu-Thr-Trp_7Me-Lys(Ac)-Pen-Phe_4_2ae-2Nal-THP-Lys(Ac)-Asn-His-Sar-NH2” showed a ring closure, yield after HPLC (the molecule shown is the open-chain precursor, disulfide bond, 20-membered ring, I2/MeOH, MeCN/H2O 20:80, 1.0 mM, with chain assembly) of 30%.
In the case of “H-6Ahx-Abu(4-Cl)-Asn-Thr-Trp-Gln-Cys-AEF-2Nal-THP-Glu-Asn-3Pya-Sar-NH2?”, the ring closure, isolated yield ([2]; thioether bond, NaI/EDTA/Na2CO3, DMF, 1.07 mM) is reported as 21%.
For “H-7Ahp-Pen-Asn-Thr-7MeTrp-Lys(Ac)-Pen-AEF-2Nal-THP-Glu-Asn-3Pya-Sar-NH2”, the ring closure, isolated yield ([2]; disulfide bond, I2/MeOH, MeCN/H2O 30:70, 1.0 mM) was 30.3%.
“H-PEG2-Pen-Asn-Thr-7MeTrp-Lys(Ac)-Pen-AEF(Dde)-2Nal-THP-hGlu-Asn-3Pya-Sar-NH2” gave a ring closure, isolated yield ([2]; disulfide bond, I2/MeOH, H2O/MeCN 1:1, 0.46 mM) of 32%.
With “McCO-Glu-Pen-N-T-7MeW-K(Ac)-Pen-AEF-2Nal-THP—K(Ac)—N-3Pva-Sar-CONH2” the ring closure, yield after HPLC (amide bond, 24-membered ring, HATU/DIEA, DMF, 0.24 mM, 2 steps) was 10%.
Work on “McCO-k(2)-Pen(3)-O-T-W-Q-Pen(3)-AEF-2Nal-THP-E(2)-N-bAla-CONH2” yielded a ring closure, yield after HPLC (amide bond, 29-membered ring, HATU/DIEA, then N2H4, DMF, […], 2 steps) of 49%.
For “PEG2(2)-Pen(3)-N-T-7MeW-K(Ac)-Pen(3)-AEF-2Nal-THP-hE(2)-N-3Pya-Sar-CONH2”, the ring closure, yield after HPLC (amide bond, 32-membered ring, HATU/DIEA, then N2H4, DMF, 4.8 mM, 2 steps) was 14%.
“ac-Pen(1:3)-Dap(2:3)-T-Trp 7Me-Lvs Ac-Pen(1:3)-Phe 4 2ae(3:3)-Nal-THP-Lys Ac—N—H-Sar-am-PEG4DA(x,2:1,3:2)” gave a ring closure, yield after HPLC (crosslinker bond, 39-membered ring, PEG4DA-NHS/DIEA, DMF, 1.0 mM) of 50%.
Compound “ac-Pen(1:3)-E(2:3)-T-Trp 7Me-Lys Ac-Pen(1:3)-Phe 4 2ae(2:3)-Nal-THP-Lys Ac—N—H-Sar-am” has a ring closure, yield after HPLC (amide bond, 24-membered ring, PyBOP/DIEA, DMF, 1.0 mM) of 50%.

— patent US20240352073A1, “BICYCLIC PEPTIDE INHIBITORS OF INTERLEUKIN-23 RECEPTOR” (Janssen Biotech, Inc., priority 2021, published 2024)
